# Experimental data reported in ChEMBL document CHEMBL1133535, “Pyrido[2,3-d]pyrimidin-7-one inhibitors of cyclin-dependent kinases” (J Med Chem, 2000).
# How the values were obtained:
# [1] = biological target: Cyclin-dependent kinase 4/cyclin D (Homo sapiens, UniProt P11802); assay: Inhibition of Cyclin-dependent kinase 4-cyclin D; assay type: protein-complex assay
# [2] = biological target: Fibroblast growth factor receptor (Homo sapiens, UniProt P22607+P11362+P22455+P21802); assay: Inhibition of Fibroblast growth factor receptor (FGFr); assay type: protein assay
# [3] = biological target: Proto-oncogene tyrosine-protein kinase Src (Homo sapiens, UniProt P12931); assay: Inhibition of c-Src tyrosine kinase
# [4] = biological target: Cyclin-dependent kinase 2/cyclin E (Homo sapiens, UniProt P24941); assay: Inhibition of Cyclin-dependent kinase 2-cyclin E; assay type: protein-complex assay
# HCT-116 = assay: Inhibition of HCT116 human colon carcinoma cell proliferation; assay type: functional, cell-based
# [5] = biological target: Cyclin-dependent kinase 1/cyclin B (Homo sapiens, UniProt P06493); assay: Inhibition of Cyclin-dependent kinase 1-cyclin B; assay type: protein-complex assay
# [6] = biological target: Cyclin-dependent kinase 2/cyclin A (Homo sapiens, UniProt P24941); assay: Inhibition of Cyclin-dependent kinase 2-cyclin A; assay type: protein-complex assay
# Proto-oncogene tyrosine-protein kinase Src, sequence (P12931 2-536 limits assumed): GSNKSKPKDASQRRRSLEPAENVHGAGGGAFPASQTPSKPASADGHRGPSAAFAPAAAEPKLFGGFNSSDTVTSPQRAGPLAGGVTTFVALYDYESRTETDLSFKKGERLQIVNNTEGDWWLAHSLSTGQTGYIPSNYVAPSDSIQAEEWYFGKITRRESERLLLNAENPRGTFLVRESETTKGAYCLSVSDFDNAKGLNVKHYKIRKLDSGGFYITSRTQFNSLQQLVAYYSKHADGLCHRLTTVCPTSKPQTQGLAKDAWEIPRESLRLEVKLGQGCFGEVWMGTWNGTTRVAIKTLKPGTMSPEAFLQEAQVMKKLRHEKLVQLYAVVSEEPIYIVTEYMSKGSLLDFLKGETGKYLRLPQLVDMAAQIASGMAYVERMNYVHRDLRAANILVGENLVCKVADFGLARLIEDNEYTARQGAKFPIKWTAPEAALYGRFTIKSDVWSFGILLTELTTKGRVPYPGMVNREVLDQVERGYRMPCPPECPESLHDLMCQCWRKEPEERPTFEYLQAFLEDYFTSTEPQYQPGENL
IC50 [1],Structure (SMILES),also measured
620 nM,CCn1c(=O)ccc2cnc(Nc3ccccc3)nc21,IC50 [2]: 3295 nM; IC50 [3]: 21000 nM
1170 nM,CCn1c(=O)ccc2cnc(Nc3ccncc3)nc21,–
13500 nM,O=c1ccc2cnc(Nc3ccccc3)nc2n1CC1CCCCC1,–
9 nM,CN1CCN(c2ccc(Nc3ncc4ccc(=O)n(C5CCCC5)c4n3)cc2)CC1,–
1670 nM,O=c1ccc2cnc(Nc3ccccc3)nc2n1-c1ccccc1,–
140 nM,CN1CCN(c2ccc(Nc3ncc4ccc(=O)n(C5CC5)c4n3)cc2)CC1,–
–,CCn1c(=O)ccc2cnc(Nc3cccc(OC(F)(F)C(F)F)c3)nc21,IC50 [2]: 44200 nM
4320 nM,CCn1c(=O)ccc2cnc(NC(C)C)nc21,–
4150 nM,COCn1c(=O)ccc2cnc(Nc3ccccc3)nc21,–
6 nM,CN1CCN(c2ccc(Nc3ncc4ccc(=O)n(C5CC6CCC5C6)c4n3)cc2)CC1 (stereo not drawn),–
1820 nM,CCn1c(=O)ccc2cnc(Nc3ccc(O)c(OC)c3)nc21,–
900 nM,CCn1c(=O)ccc2cnc(Nc3ccc(N4CCC(CCCO)CC4)cc3)nc21,–
0.7 nM,CCN(CC)CCOc1ccc(Nc2ncc3ccc(=O)n(C4CCCC4)c3n2)cc1,–
2330 nM,CCn1c(=O)ccc2cnc(Nc3ccc(OCCOC)cc3)nc21,–
2100 nM,CN1CCN(c2ccc(Nc3ncc4ccc(=O)n(CCOCc5ccccc5)c4n3)cc2)CC1,–
13 nM,CC(C)CCn1c(=O)ccc2cnc(Nc3ccc(N4CCN(C)CC4)cc3)nc21,–
4 nM,CCN(CC)CCOc1ccc(Nc2ncc3ccc(=O)n(C4CCCCCC4)c3n2)cc1,–
190 nM,CCC(C)n1c(=O)ccc2cnc(Nc3ccccc3)nc21 (stereo not drawn),–
450 nM,CCN(CC)CCOc1ccc(Nc2ncc3ccc(=O)n(C4CC5CCC4C5)c3n2)cc1 (stereo not drawn),–
1650 nM,CN1CCN(c2ccc(Nc3ncc4ccc(=O)n(CC(O)CO)c4n3)cc2)CC1 (stereo not drawn),–

IC50 [1],Structure (SMILES),also measured
159 nM,CC(C)CCn1c(=O)ccc2cnc(Nc3ccccc3)nc21,–
585 nM,CCn1c(=O)ccc2cnc(Nc3ccc(O)cc3)nc21,–
2860 nM,COCCn1c(=O)ccc2cnc(Nc3ccccc3)nc21,–
2750 nM,CCn1c(=O)ccc2cnc(Nc3ccc(-n4cccc4)cc3)nc21,–
7800 nM,CCOCCn1c(=O)ccc2cnc(Nc3ccccc3)nc21,–
8 nM,O=c1ccc2cnc(Nc3ccc(N4CCC(CCCO)CC4)cc3)nc2n1C1CC2CCC1C2 (stereo not drawn),IC50 (HCT-116): 213 nM; IC50 [5]: > 40000 nM; IC50 [6]: 209 nM; IC50 [2]: 8620 nM; IC50 [4]: 165 nM
31000 nM,COC(=O)Cn1c(=O)ccc2cnc(Nc3ccccc3)nc21,–
–,CCCn1c(=O)ccc2cnc(Nc3ccccc3)nc21,IC50 [2]: 6600 nM
297 nM,CC(C)Cn1c(=O)ccc2cnc(Nc3ccccc3)nc21,–
11 nM,CCN(CC)CCOc1ccc(Nc2ncc3ccc(=O)n(C4CCCCC4)c3n2)cc1,–
4080 nM,CCn1c(=O)ccc2cnc(Nc3ccc(OC)c(OC)c3)nc21,–
34 nM,O=c1ccc2cnc(Nc3ccc(N4CCC(CCCO)CC4)cc3)nc2n1C1CCCC1,–
–,CC(C)n1c(=O)ccc2cnc(Nc3ccc(N4CCN(C)CC4)cc3)nc21,IC50 [2]: 70 nM
330 nM,CCn1c(=O)ccc2cnc(Nc3ccc(OCCN(C)C)cc3)nc21,–
300 nM,CCn1c(=O)ccc2cnc(Nc3ccc(N4CCCCC4)cc3)nc21,–
–,CCCCn1c(=O)ccc2cnc(Nc3ccccc3)nc21,IC50 [5]: 2000 nM; IC50 [2]: 5290 nM
175 nM,CN1CCN(c2ccc(Nc3ncc4ccc(=O)n(-c5ccccc5)c4n3)cc2)CC1,–
1400 nM,CCN(CC)c1ccc(Nc2ncc3ccc(=O)n(CC)c3n2)cc1,–
145 nM,CC(C)n1c(=O)ccc2cnc(Nc3ccccc3)nc21,–

Structure (SMILES),IC50 [1],also measured
CCn1c(=O)ccc2cnc(N(C)c3ccccc3)nc21,> 40000 nM,–
CCn1c(=O)ccc2cnc(Nc3cccc(OC)c3)nc21,> 40000 nM,–
CCn1c(=O)ccc2cnc(NCc3ccccc3)nc21,> 40000 nM,–
CN1CCN(c2ccc(Nc3ncc4ccc(=O)n(C5CCCCC5)c4n3)cc2)CC1,4 nM,IC50 [2]: 51 nM; IC50 [4]: 20 nM
